Results published in paper PMC9229949 (Pharmaceutics, 2022).
Where two headings read alike, the source gives them in different places.

Key:
[1] = biological target: T1, PfTrxR (Plasmodium falciparum, UniProt Q25861); assay: Inhibition of enzymatic activity of recombinant P. falciparum TrxR; format: biochemical
T1 construct: made in house
T1 sequence (Q25861 1-541): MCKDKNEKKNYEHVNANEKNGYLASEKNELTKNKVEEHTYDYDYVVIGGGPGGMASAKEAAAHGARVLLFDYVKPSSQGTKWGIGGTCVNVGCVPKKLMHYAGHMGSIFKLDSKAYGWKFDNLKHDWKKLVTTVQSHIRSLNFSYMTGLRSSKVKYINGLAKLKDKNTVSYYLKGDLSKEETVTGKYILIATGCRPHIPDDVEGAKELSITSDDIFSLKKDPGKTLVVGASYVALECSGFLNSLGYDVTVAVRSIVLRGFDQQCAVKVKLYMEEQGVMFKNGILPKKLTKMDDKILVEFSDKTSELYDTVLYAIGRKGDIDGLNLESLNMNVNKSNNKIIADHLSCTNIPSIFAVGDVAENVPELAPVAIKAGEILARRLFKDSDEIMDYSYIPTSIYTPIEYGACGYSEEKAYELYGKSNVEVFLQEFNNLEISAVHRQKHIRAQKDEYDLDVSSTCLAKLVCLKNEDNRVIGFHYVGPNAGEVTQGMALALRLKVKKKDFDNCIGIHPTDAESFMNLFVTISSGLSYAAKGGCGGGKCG
Procedure: (§1) The codon-optimized sequence for PfTrxR [27, 28] was synthesized and subcloned into pET-15b (Genscript) and expressed and purified as for human glutathione reductase (hGR). Recombinant Schistosoma mansoni (S. mansoni) thioredoxin glutathione reductase (SmTGR), human TrxR (hTrxR), and hGR proteins were expressed and purified as described. TrxR and TGR enzyme inhibition assays were performed in triplicate at 25 °C in 0.1 M potassium phosphate (pH 7.4), 10 mM EDTA, 100 µM NADPH and 0.01% Tween-20. SmTGR (4 nM), hTrxR (4 nM), and PfTrxR (50 nM) were preincubated with the compounds for 15 min. The reaction was started with addition of an equal volume of 5,5′-dithiobis(2-nitrobenzoic acid) (6 mM) and NADPH (100 µM). The increase in A412 during the first 3 min was recorded. […]. The reactions were performed in triplicate. The IC50s were calculated in Prism version 5.01.

[2] = biological target: T2, human TrxR (hTrxR) (Homo sapiens, UniProt Q16881); assay: Inhibition of enzymatic activity of recombinant human TrxR; format: biochemical; conditions: recombinant enzyme, 15 min preincubation; mean of one experiment; read-out: IC50 for TrxRs, Human (Sec)
T2 construct: made in house
T2 sequence (Q16881 151-649 limits assumed): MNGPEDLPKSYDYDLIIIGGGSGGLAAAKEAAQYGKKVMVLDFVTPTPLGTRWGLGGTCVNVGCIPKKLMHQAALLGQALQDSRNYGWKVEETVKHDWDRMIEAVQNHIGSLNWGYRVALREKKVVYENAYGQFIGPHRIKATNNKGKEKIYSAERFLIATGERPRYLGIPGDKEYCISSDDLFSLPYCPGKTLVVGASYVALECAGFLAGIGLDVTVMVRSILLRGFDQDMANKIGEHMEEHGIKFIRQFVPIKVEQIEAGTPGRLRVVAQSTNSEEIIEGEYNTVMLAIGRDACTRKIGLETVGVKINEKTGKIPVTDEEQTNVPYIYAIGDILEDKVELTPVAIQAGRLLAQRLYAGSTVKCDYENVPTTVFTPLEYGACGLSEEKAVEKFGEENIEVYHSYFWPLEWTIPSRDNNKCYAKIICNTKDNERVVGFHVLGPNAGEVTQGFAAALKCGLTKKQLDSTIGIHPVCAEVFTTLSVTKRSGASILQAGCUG
Procedure: as §1

[3] = tested on: P. berghei sporozoites in Huh-7 cells; assay: P. berghei hepatic stages: infection of Huh-7 cells by luciferase-expressing sporozoites; format: cell-based
Procedure: Huh-7 cells at 1.0 × 10^4 per well were seeded in 96-well plates the day before drug treatment and infection. The culture medium was replaced by infection medium (culture medium supplemented with gentamicin (50 μg/mL) and amphotericin B (0.8 μg/mL)) containing the appropriate concentration of each compound for approximately 1 h prior to infection with sporozoites of firefly luciferase-expressing P. berghei, freshly obtained through the disruption of salivary glands of infected female Anopheles stephensi mosquitoes. An amount of the DMSO solvent equivalent to that present in the highest compound concentration was used as negative control. Sporozoite addition was followed by centrifugation at 1800× g for 5 min. and parasite infection load was measured 48 h after infection by using a bioluminescence assay (Biotium, Hayward, CA, USA). The effect of the compounds on the viability of Huh-7 cells was assessed by performing the AlamarBlue (Invitrogen, Waltham, MA, USA) assay according to the manufacturer’s protocol.

[4] = tested on: 3D7 P. falciparum gametocytes stage V; assay: P. falciparum mature gametocytes (stage V), luciferase viability; format: cell-based; conditions: 3D7 strain, 72 h, mean ± S.D. of one experiment, read-out: IC50, gametocytes of P. falciparum, Stage V
Procedure: The activity of compounds was assessed against young gametocytes (stages I/III) and against mature gametocytes (stage V). […] A volume of 100 μL of 3D7elo1-pfs16-CBG99 gametocytes of 3D7 P. falciparum at 0.5–1% parasitemia and 2% hematocrit were dispensed. […] Luciferase activity was used to determine gametocytes viability. A volume of 100 µL of culture medium was removed from each well to increase hematocrit; 70 µL of resuspended culture was transferred to a black 96-well plate; 70 µL of D-luciferin (1 mM in citrate buffer 0.1 M, pH 5.5) was added. Luminescence measurements were performed after 10 min with 500 ms integration time. The IC50 was extrapolated from nonlinear regression analysis of the concentration–response curve.

Row | SMILES | IC50 [1] [µM] | IC50 [2] [µM] | inhibition at 10 µM ([3]; Plasmodium berghei, Huh-7, 48 h, read-out: Sporozoites (Inhibition of Infection, %)) [%] | IC50 ([4]; Plasmodium falciparum) [µM] | IC50 ([1]; recombinant enzyme, 15 min preincubation, mean of one experiment, read-out: IC50 for TrxRs, P. falciparum (Cys)) [µM] | inhibitory activity for the hepatic stages ([3]; up to 10 μM) | IC50 [4] [µM]
1 | CCN(CC)Cc1cc(Nc2ccnc3cc(Cl)ccc23)ccc1O [Amodiaquine (AQ), amodiaquine] | > 66.7 | 26.5 | 71 | 23.6 ± 5 |  |  | 
2 | [Cl][Au].c1ccc(P(c2ccccc2)c2ccccc2)cc1 [[AuClPPh3]] |  | 0.00065 |  |  | 0.0019 | no inhibitory activity | 15.2 ± 2.6
